Assay [1] deals with PTK2 high NSCLC PDX LU-01-0604. Kind of assay: s.c. PTK2 high NSCLC PDX model LU-01-0604, Compound 5 and carboplatin. Format: in vivo, mouse. As for the experimental part: (§1) A subcutaneous xenograft tumor model of human tumor immunodeficient mice was established by cell inoculation: tumor cells in logarithmic growth phase were collected, counted, resuspended in 1×PBS, and the cell suspension concentration was adjusted to 2.5-5 ×10^7/mL. The tumor cells were inoculated subcutaneously in the right side of immunodeficient mice with a 1 mL syringe ([…]), 5-10×10^6/0.2 mL/mouse. All animal experiments were strictly in accordance with the specifications for the use and management of experimental animals in GenePharma Co., Ltd. and Suzhou Ascentage Pharma Co., Ltd. The calculation of relevant parameters refers to the Chinese NMPA “Guidelines for Non-Clinical Research Techniques of Cytotoxic Anti-tumor Drugs”.
(§2) Animal body weight and tumor size were measured twice weekly during the experiment. The state of the animal and the presence or absence of death were observed every day. The growth of tumor and the effects of treatment on normal behavior of animals were monitored routinely, specifically involving experimental animal activity, feeding and drinking, weight gain or loss, eyes, clothing hair and other abnormalities. The deaths and clinical symptoms observed during the experiment were recorded in the raw data. All operations for administration and measurement of mouse body weight and tumor volume were performed in a clean bench. According to the requirements of the experimental protocol, after the end of the last administration, plasma and tumor tissues were collected, weighed and photographed. The plasma and tumor samples were frozen at −80° C. for ready-to-use.
(§3) Tumor volume (TV) is calculated as: TV=a×b^2/2, wherein a and b represent the length and width of the tumor to be measured, respectively.
(§4) The relative tumor volume (RTV) is calculated as: RTV=Vt/V1, wherein V1 is the tumor volume at the start of grouping and administration, and Vt is the tumor volume measured on the t day after administration.
(§5) The evaluation index of anti-tumor activity is the relative tumor proliferation rate T/C (%), and the calculation formula thereof is: relative tumor proliferation rate T/C (%)=(TRTV/CRTV)×100%, TRTV is the RTV of treatment group, CRTV is the RTV of solvent control group.
(§6) Change of body weight (%)=(measured body weight−body weight at the start of grouping)/body weight at the start of grouping×100%.
(§7) A dose of drug is considered to be severely toxic if the body weight of mouse is reduced by more than 20% or the number of drug-related deaths exceeds 20%.
(§8) According to the description by Clarke R., Issues in experimental design and endpoint analysis in the study of experimental cytotoxic agents in vivo in breast cancer and other models [J]. Breast Cancer Research & Treatment, 1997, 46(2-3): 255-278, synergy analysis was evaluated using the following formula: synergy factor=((A/C)×(B/C))/(AB/C); A=RTV value of drug A alone group; B=RTV value of drug B alone group; C=RTV value of the solvent control group, and AB=RTV value of the A and B combination group.
(§9) Use of mRECIST (Gao et al., 2015) measured tumor responses included stable disease (SD), partial tumor regression (PR), and complete regression (CR), determined by comparing tumor volume change at day t to its baseline: tumor volume change (%)=(Vt−V1)/V1. The BestResponse was the minimum value of tumor volume change (%) for t≥10. For each time t, the average of tumor volume changes from t=1 to t was also calculated. BestAvgResponse was defined as the minimum value of this average for t≥10. The criteria for response (mRECIST) were adapted from RECIST criteria (Gao et al., 2015; Therasse et al., 2000) and defined as follows: mCR, BestResponse<−95% and BestAvg Response<−40%; mPR, BestResponse<−50% and BestAvgResponse<−20%; mSD, BestResponse<35% and BestAvgResponse<30%; mPD, not otherwise categorized. SD, PR, and CR were considered responders and used to calculate response rate (%). […] Body weight of animals were monitored simultaneously. […]

Another assay deals with ovarian PA-1 xenograft. Description: s.c. ovarian PA-1 xenograft tumor model, Compound 5 and carboplatin. Format: in vivo, mouse. How it is done:
as §1, §2, §3, §4, §5, §6, §7, §8
Use of mRECIST (Gao et al., 2015) measured tumor responses included stable disease (SD), partial tumor regression (PR), and complete regression (CR), determined by comparing tumor volume change at day t to its baseline: tumor volume change (%)=(Vt−V1)/V1. The BestResponse was the minimum value of tumor volume change (%) for t≥10. For each time t, the average of tumor volume changes from t=1 to t was also calculated. […] Body weight of animals were monitored simultaneously. […]

For assay [2], the system named is OVCAR3 s.c. ovarian xenograft. Format: in vivo. How it is done:
as §1, §2, §3, §4, §6, §7, §8
Use of mRECIST (Gao et al., 2015) measured tumor responses included stable disease (SD), partial tumor regression (PR), and complete regression (CR), determined by comparing tumor volume change at day t to its baseline: tumor volume change (%)=(Vt−V1)/V1. The BestResponse was the minimum value of tumor volume change (%) for t≥10. For each time t, the average of tumor volume changes from t=1 to t was also calculated. BestAvgResponse was defined as the minimum value of this average for t≥10. The criteria for response (mRECIST) were adapted from RECIST criteria (Gao et al., 2015; Therasse et al., 2000) and defined as follows: mCR, BestResponse<−95% and BestAvg Response<−40%; mPR, BestResponse<−50% and BestAvgResponse<−20%; mSD, BestResponse<35% and BestAvgResponse<30%; mPD, not otherwise categorized. SD, PR, and CR were considered responders and used to calculate response rate (%). […] Body weight of animals were monitored simultaneously. The change in body weight was calculated based on the animal weight of the first day of dosing (day 1). Tumor volume and changes in body weight (%) were represented as the mean±standard error of the mean (SEM).

Assay [3] deals with Neuroblastoma SH-SY5Y (ALK F1174L) xenograft. Kind of assay: s.c. Neuroblastoma SH-SY5Y xenograft model, Compound 5 and Compound 33. The class given is in vivo. As for the experimental part: as §1, §2, §3, §4, §5, §6, §7, §8, §9
Assay [4] relates to PTK2-high liver PDX LI-03-1140. Kind of assay: PTK2-high liver PDX model LI-03-1140, Compound 5 and Lenvatinib. Format: in vivo, mouse. How it is done: as §1, §2, §3, §4, §5, §6, §7, §8, §9
Where [5] appears, read: Compound 5 50 mg/kg orally once per day, carboplatin 30 mg/kg i.p. once per week, 29 days.
Where [6] appears, read: Compound 5 100 mg/kg orally once per day 21 days, carboplatin 50 mg/kg i.p. once on Day 1.
Setting [7] is: Compound 5 100 mg/kg orally once per day, paclitaxel 10 mg/kg i.v. once a week, carboplatin 30 mg/kg i.v. once a week.
Where [8] appears, read: Compound 5 50 mg/kg orally once per day, Compound 33 50 mg/kg orally once per day D1-D10 and once on D21.
Setting [9] is: Compound 5 50 mg/kg, Lenvatinib 20 mg/kg, orally once per day, 28 days.

For `Cc1cc(Nc2ncc(Cl)c(Nc3ccccc3S(=O)(=O)C(C)C)n2)c(OC(C)C)cc1C1=CCN(C2CCOCC2)CC1` [Compound 5, 5-chloro-N^2-(2-isopropoxy-5-methyl-4-(1-(tetrahydro-2H-pyran-4-yl)-1,2,3,6-tetrahydropyridin-4-yl)phenyl)-N^4-(2-(isopropylsulfonyl)phenyl)pyrimidine-2,4-diamine], in assay [1] (setting [5]), the “RTV on Day 29 after administration (mean ± standard error)” value amounted to 8.25 ± 1.03 and the “T/C on Day 29 after administration (%)” value is 94.50%. Further, in assay [1] (animals per class), the mRECIST is given as 2/2 PD. The “antitumor activity (conclusion in words)” value in assay [1] (mouse, in vivo) was “no antitumor activity”. In the assay with ovarian PA-1 xenograft (setting [6]), the “RTV on Day 22 after administration (mean ± standard error)” value was found to be 10.0 ± 1.0 and the “T/C on Day 22 after administration (%)” value was found to be 62.89%. Also, in the assay with ovarian PA-1 xenograft (mouse, in vivo), the “antitumor activity (conclusion in words)” value is listed as “moderate antitumor activity”. In assay [2] (setting [7]), the “RTV on Day 35 after administration (mean ± standard error)” value is reported as 13.66 ± 2.88 and the “T/C on Day 35 after administration (%)” value is recorded as 85.04%. Further, the mRECIST in assay [2] (animals per class) is 5/5 PD. In assay [2] (mouse, in vivo), the “antitumor activity (conclusion in words)” value is on record as “minor antitumor activity”. For the same compound, the “Overall regression rate (ORR), %” value in assay [2] (proportion of animals with CR or PR) came to 0%. The “Disease control rate (DCR), %” value in assay [2] (proportion of animals with CR, PR or SD) is listed as 0%. In assay [3] (setting [8]), the “RTV on Day 21 after administration (mean + standard error)” value was 1.79 ± 0.22 and the “T/C on Day 21 after administration (%)” value was determined as 6.74%. In assay [3] (mouse, in vivo), the DCR is on record as 60, the “ORR (%)” value is listed as 0% and the “antitumor activity (conclusion in words)” value was “strong antitumor activity”. Besides, in assay [4] (setting [9]), the “RTV on Day 28 after administration (mean ± standard error)” value was found to be 5.00 ± 0.17 and the “T/C on Day 28 after administration (%)” value is on record as 92.08%. The “mRECIST on Day 28 after administration” value in assay [4] (Day 28, animals per class) is 2/2 PD. For the same compound, the mRECIST in assay [4] (best response, animals per class) is 2/2 PD. The “antitumor activity (conclusion in words)” value in assay [4] (mouse, in vivo) is given as “no antitumor activity”.
